{"source": "paper PMC4729137", "about": "“Functional analysis of androgen receptor mutations that confer anti-androgen resistance identified in circulating cell-free DNA from prostate cancer patients” (Genome Biology, 2016)", "key": {"L882I-AR": {"biological_target": "T1, L882I-AR (Homo sapiens, UniProt P10275, L882I)", "T1 sequence (P10275 1-920 L882I)": "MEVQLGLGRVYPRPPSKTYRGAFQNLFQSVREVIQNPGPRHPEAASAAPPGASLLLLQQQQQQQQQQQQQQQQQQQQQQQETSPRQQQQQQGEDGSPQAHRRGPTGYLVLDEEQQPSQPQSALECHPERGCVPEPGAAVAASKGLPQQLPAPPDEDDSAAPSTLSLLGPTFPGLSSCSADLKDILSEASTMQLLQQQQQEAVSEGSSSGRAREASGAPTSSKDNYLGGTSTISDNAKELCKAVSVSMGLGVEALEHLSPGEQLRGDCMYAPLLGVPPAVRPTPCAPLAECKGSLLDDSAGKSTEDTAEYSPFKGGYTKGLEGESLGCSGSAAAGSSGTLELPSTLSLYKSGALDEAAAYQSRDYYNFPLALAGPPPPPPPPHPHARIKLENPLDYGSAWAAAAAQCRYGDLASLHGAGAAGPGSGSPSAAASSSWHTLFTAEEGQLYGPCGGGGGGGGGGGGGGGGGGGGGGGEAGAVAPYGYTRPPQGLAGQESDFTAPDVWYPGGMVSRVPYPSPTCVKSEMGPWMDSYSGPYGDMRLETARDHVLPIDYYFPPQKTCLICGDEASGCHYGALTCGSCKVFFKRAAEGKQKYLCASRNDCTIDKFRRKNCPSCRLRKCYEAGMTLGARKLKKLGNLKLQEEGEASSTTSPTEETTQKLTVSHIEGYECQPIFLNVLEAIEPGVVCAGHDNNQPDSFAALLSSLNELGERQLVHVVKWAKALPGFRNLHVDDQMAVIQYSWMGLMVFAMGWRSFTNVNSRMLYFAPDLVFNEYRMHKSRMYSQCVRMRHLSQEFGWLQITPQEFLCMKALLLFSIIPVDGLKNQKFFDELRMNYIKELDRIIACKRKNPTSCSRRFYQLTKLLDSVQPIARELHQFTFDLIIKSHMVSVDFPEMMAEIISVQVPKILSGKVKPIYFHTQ", "assay_type": "cell-based", "details": "AR mutant L882I; transfected PC3 cells; 0.1 nM R1881; drug 0 to 50 μM", "source_text": "(§1) Full-length human AR (WT-AR) was encoded on a pcDNA3.1 expression plasmid (Life technologies). The LBD point mutations (single and multiple) were generated using the QuikChange II Site-Directed Mutagenesis Kit (Agilent Technologies) as per manufacturer’s instructions using WT-AR as the template. The mutagenic oligonucleotide primers were designed individually with the desired mutation in the middle of the primer with approximately 10 to 15 bases of correct sequence on both sides.\n(§2) PC3 cells were seeded and transfected as described above. […] A non-stimulated/no R1881 control was used. After 24 h, cells were lysed and AR-dependent luciferase activity was quantified. Each concentration was assayed in quadruplicate n = 4, with a biological replicate of n = 3. Results were averaged and normalized by expressing them as a percentage of WT AR activity."}, "M896T-AR": {"biological_target": "T2, M896T-AR (Homo sapiens, UniProt P10275, M896T)", "T2 sequence (P10275 1-920 M896T)": "T1 sequence (P10275 1-920 L882I) with I882L, M896T", "assay_type": "cell-based", "details": "AR mutant M896T; transfected PC3 cells; 0.1 nM R1881; drug 0 to 50 μM", "source_text": "as §1, §2"}}, "note": "Numbering of substitutions follows the chain as printed.", "data": [{"compound": "CC(C)(O)C(=O)Nc1ccc([N+](=O)[O-])c(C(F)(F)F)c1", "note": "[Hydroxyflutamide, hydroxyflutamide]", "values": [{"measurement": "Agonist response to treatment", "setting": "L882I-AR", "result": "Partial"}, {"measurement": "Agonist response to treatment", "setting": "M896T-AR", "result": "Partial"}]}]}
